Measured values as given in PMC12299168 (Pharmaceutics, 2025).
Where two headings read alike, the source gives them in different places.

What was measured:
[1] = system: flare and wheal suppression; details: children aged 6–11 years; cited from earlier work
[2] = system: porcine liver esterase (PLE); test: Hydrolysis of prodrug in porcine liver esterase (PLE); assay type: in vitro ADME; details: for first-order rate constant (kobs): during 6 h; for half-life at 0.25 mg/mL (LCZ 2HCl Eq.): pig, porcine liver esterase (PLE) solution, 10% DMSO, 37 °C, read-out: T1/2 (time required for 50% degradation of prodrug) (converted)
Experimental: The ester bond cleavage assay was adapted from reference, with minor modifications, and carried out using PLE to evaluate the hydrolytic ratio (n = 3). […] At 0, 1, 2, 4, 6 and 24 h, the aliquot (100 μL) was collected using a 28 G syringe, and then immediately diluted 10-fold with a solvent composed of Acetonitrile:DW = 90:10 (v/v) to stop enzymatic action. The elution was replenished with an equal concentration and volume of fresh esterase solution. The diluted samples were filtered through a double 0.45 μm PTFE syringe filter. The filtrates were analyzed for their prodrug and LCZ content by HPLC to determine the conversion of the prodrug to LCZ.
(§1) Esterase, plasma hydrolysis and chemical stability studies were performed using the HPLC method. The HPLC equipment used was Infinity 1260 (Agilent, CA) fitted with a quaternary pump, an autosampler, a UV detector set at a wavelength of 230 nm and a column compartment maintained at 20 °C. The sample was eluted from a Fortis C18 (150 × 4.6 mm, 5 μm particle size) (Fortis, Neston, UK) analytical column using Acetonitrile:distilled water:sulfuric acid (90:9.6:0.4, v/v). The mobile phase was pumped isocratically at a flow rate of 1 mL/min with a 20 μL injection volume.

[3] = Hydrolysis of prodrugs in rat plasma; assay type: in vitro ADME; details: 37 °C, during 6 h
Experimental: First, 100 μL of stock solution was added to 3.9 mL of heparinized rat plasma (n = 3). The samples were incubated at 37 °C in a shaking chamber (100 rpm). At 0, 1, 2, 4, 6 and 24 h, the aliquot (100 μL) was collected, and then immediately diluted 10-fold with a solvent composed of Acetonitrile:DW = 90:10 (v/v) to precipitate the protein. An equal volume of fresh rat plasma was replenished after each sampling. The samples were centrifuged at 5000 rpm for 10 min and the supernatants were filtered through a double 0.45 μm PTFE syringe filter. The filtrates were analyzed for their prodrug and LCZ content by HPLC to determine the conversion of the prodrug to LCZ.
as §1

| SMILES | EC50 for flare suppression [1] [ng/mL] | EC50 for wheal suppression [1] [ng/mL] | first-order rate constant (kobs) ([2]; PLE 0.2 units/mL) [h⁻¹] | first-order rate constant (kobs) ([2]; PLE 0.5 units/mL) [h⁻¹] | first-order rate constant (kobs) ([2]; PLE 2.0 units/mL) [h⁻¹] | half-life at 0.25 mg/mL (LCZ 2HCl Eq.) ([2]; PLE 0.2 unit/mL) [h] | half-life at 0.25 mg/mL (LCZ 2HCl Eq.) ([2]; PLE 0.5 unit/mL) [h] | half-life at 0.25 mg/mL (LCZ 2HCl Eq.) ([2]; PLE 2.0 unit/mL) [h] | first-order rate constant (kobs) [3] [h⁻¹] |
| --- | --- | --- | --- | --- | --- | --- | --- | --- | --- |
| O=C(O)COCCN1CCN([C@H](c2ccccc2)c2ccc(Cl)cc2)CC1 [LCZ, Levocetirizine] | 1.4 ± 0.1 | 16.1 ± 2.2 | – | – | – | – | – | – | – |
| CCCCCCCCCCOC(=O)COCCN1CCN([C@@H](c2ccccc2)c2ccc(Cl)cc2)CC1 [LCZ-D, Levocetirizine decanoate] | – | – | 0.201 | 0.253 | 0.580 | 4 | 3 | ~1 | 0.229 |
| CCCCCCCCCCCCOC(=O)COCCN1CCN([C@@H](c2ccccc2)c2ccc(Cl)cc2)CC1 [LCZ-L, Levocetirizine laurate] | – | – | 0.127 | 0.165 | 0.498 | 5 | 4 | ~2 | 0.157 |
